Assay results from US6395755B1, “Benzothiophene pharmaceutical compounds” (Eli Lilly and Company, priority 1995, dated 2002).
Like-named read-outs stand apart in the source and are kept apart here.

How the values were obtained:
[1] = test system: Uterine Eosinophil Peroxidase (EPO); parameters: species or system Sprague Dawley rats; conditions: rat, in vivo; for Uterine EPO (V. max): po
Excerpt: (§1) Seventy-five day old female Sprague Dawley rats (weight range of 200 to 225 g) are obtained from Charles River Laboratories (Portage, Mich.). The animals are either bilaterally ovariectomized (OVX) or exposed to a Sham surgical procedure at Charles River Laboratories, and then shipped after one week. Upon arrival, they are housed in metal hanging cages in groups of 3 or 4 per cage and have ad libitum access to food (calcium content approximately 0.5%) and water for one week. Room temperature is maintained at 22.2° ±1.7° C. with a minimum relative humidity of 40%. The photoperiod in the room is 12 hours light and 12 hours dark.
(§2) Dosing Regimen Tissue Collection. After a one week acclimation period (therefore, two weeks post-OVX) daily dosing with test compound is initiated. 17α-ethynyl estradiol or the test compound is given orally, unless otherwise stated, as a suspension in 1% carboxymethylcellulose or dissolved in 20% cyclodextrin. Animals were dosed daily for 4 days. Following the dosing regimen, animals are weighed and anesthetized with a ketamine: Xylazine (2:1, V:V) mixture and a blood sample is collected by cardiac puncture. The animals are then sacrificed by asphyxiation with CO2, the uterus is removed through a midline incision, and a wet uterine weight is determined.
Uterine Eosinophil Peroxidase (EPO) Assay. Uteri are kept at 4° C. until time of enzymatic analysis. The uteri are then homogenized in 50 volumes of 50 mM Tris buffer (pH−8.0) containing 0.005% Triton X-100. Upon addition of 0.01% hydrogen peroxide and 10 mM O-phenylenediamine (final concentrations) in Tris buffer, increase in absorbance is monitored for one minute at 450 nm. The presence of eosonophils in the uterus is an indication of estrogenic activity of a compound. The maximal velocity of a 15 second interval is determined over the initial, linear portion of the reaction curve.

[2] = test system: Serum cholesterol; assay: Serum cholesterol in ovariectomized rats (post-menopausal model); format: in vivo, Sprague Dawley rats; conditions: oral; for Serum Cholesterol (% decrease vs. OVX): daily for 4 days
Description: (§3) In the examples illustrating the methods, a post-menopausal model was used in which effects of different treatments upon circulating lipids were determined.
as §1, §2
Cholesterol Analysis. Blood samples are allowed to clot at room temperature for 2 hours, and serum is obtained following centrifugation for 10 minutes at 3000 rpm. Serum cholesterol is determined using a Boehringer Mannheim Diagnostics high performance cholesterol assay. Briefly the cholesterol is oxidized to cholest-4-en-3-one and hydrogen peroxide. The hydrogen peroxide is then reacted with phenol and 4-aminophenazone in the presence of peroxidase to produce a p-quinone imine dye, which is read spectrophotemetrically at 500 nm. Cholesterol concentration is then calculated against a standard curve. The entire assay is automated using a Biomek Automated Workstation.

[3] = test system: uterus of ovariectomized (OVX) rats; parameters: species or system Sprague Dawley rats; conditions: rat, in vivo, po, 0.1 mg/kg/day
Description: as §3, §1
as §2, with “Following the dosing regimen, animals are weighed and anesthetized with a ketamine: Xylazine (2:1, V:V) mixture and a blood sample is collected by cardiac puncture.” left out

[4] = test system: femur density of ovariectomized rats; assay: Osteoporosis Test Procedure (35 day OVX rat, femur density); format: in vivo; conditions: oral in 20% hydroxypropyl β-cyclodextrin, daily for 35 days
Description: Following the General Preparation Procedure, infra, the rats are treated daily for 35 days (6 rats per treatment group) and sacrificed by carbon dioxide asphyxiation on the 36th day. The 35 day time period is sufficient to allow maximal reduction in bone density, measured as described herein. At the time of sacrifice, the uteri are removed, dissected free of extraneous tissue, and the fluid contents are expelled before determination of wet weight in order to confirm estrogen deficiency associated with complete ovariectomy. […] The uteri are then placed in 10% neutral buffered formalin to allow for subsequent histological analysis. The right femurs are excised and digitilized x-rays generated and analyzed by an image analysis program (NIH image) at the distal metaphysis. The proximal aspect of the tibiae from these animals are also scanned by quantitative computed tomography. In accordance with the above procedures, compounds of the present invention and ethynyl estradiol (EE2) in 20% hydroxypropyl β-cyclodextrin are orally administered to test animals.

SMILES | Uterine EPO (V. max) ([1]; 0.01 mg/kg) | Uterine EPO (V. max) ([1]; 0.1 mg/kg) | Uterine EPO (V. max) ([1]; 1 mg/kg) | Uterine EPO (V. max) ([1]; 5 mg/kg) | Serum Cholesterol (% decrease vs. OVX) ([2]; dose 0.01 mg/kg) [%] | Serum Cholesterol (% decrease vs. OVX) ([2]; dose 0.1 mg/kg) [%] | Serum Cholesterol (% decrease vs. OVX) ([2]; dose 1.0 mg/kg) [%] | Serum Cholesterol (% decrease vs. OVX) ([2]; dose 5.0 mg/kg) [%] | Effect on uterine weight compared to ovariectomized animals (in words) [3] | Eosinophil infiltration into the uterus (stromal layer), in words [1] | Effect on serum cholesterol compared to ovariectomized controls (in words) ([2]; OVX rats, EE2 at 0.1 mg/kg/day) | Prevention of loss of femur density / bone loss after ovariectomy [4]
CC(c1ccc(OCCN2CCCCC2)cc1)c1c(-c2ccc(O)cc2)sc2cc(O)ccc12 (stereo not drawn) [Example 4] | 4.5 | 3.6 | 5.4 | 3.9 | −26.5 | 10.4 | 43.9 | 35.2 |  |  |  | 
O=C(c1ccc(OCCN2CCCCC2)cc1)c1c(-c2ccc(O)cc2)sc2cc(O)ccc12 [Raloxifene, reference compound] | 3.9 | 5.4 | 4.5 |  | 12.0 | 30.4 | 60.6 |  |  |  |  | 
CC(O)(c1ccc(OCCN2CCCCC2)cc1)c1c(-c2ccc(O)cc2)sc2cc(O)ccc12 (stereo not drawn) [Example 2] | 4.2 | 5.1 | 7.8 | 5.7 | −10.2 | 19.4 | 50.7 | 53.9 |  |  |  | 
C#C[C@]1(O)CC[C@H]2[C@@H]3CCc4cc(O)ccc4[C@H]3CC[C@@]21C [EE2, 17α-ethynyl estradiol, reference compound] |  | 189.6 |  |  |  | 84.8 |  |  | substantially greater than the uterine weight of ovariectomized test animals | substantial, expected increase in eosinophil infiltration | caused a decrease in serum cholesterol | prevented this loss
Oc1ccc(-c2sc3cc(O)ccc3c2C(O)(c2ccccc2)c2ccc(OCCN3CCCCC3)cc2)cc1 (stereo not drawn) [Example 8] | 4.2 | 3.6 | 4.5 | 35.1 | −9.0 | −3.1 | 14.0 | 56.9 |  |  |  | 
